Results reported in patent US20230279024A1, “TRIAZINE COMPOUND AND COMPOSITION AND USE THEREOF” (BEIJING FINDCURE BIOSCIENCES, LTD., priority 2020, published 2023).

What was measured:
CYP3A4/5 = assay: Inhibition of human liver microsomes CYP450, 3A4/5; assay type: in vitro ADME; details: compounds 10 μM (positive control: concentration not given)
Ba/F3 AXL cells = assay: Cell activity test: growth inhibition of Ba/F3 AXL cell line (CTG, 72 h); assay type: cell-based; details: Mus musculus, BaF3
Protocol: This experiment was conducted by detecting the inhibitory effect of compounds on the growth of Ba/F3 AXL cell line and Ba/F3 parental cell line. Cells in logarithmic growth stage were harvested and counted by platelet counter. Trypan blue rejection method was used to detect cell viability to ensure that the cell viability was above 90%. Adjust cell concentration; 90 μL cell suspension was added to 96-well plates, respectively; Cells in 96-well plates were cultured overnight at 37° C., 5% CO2 and 95% humidity. A 10-fold drug solution was prepared, with the highest concentration of 10 μM, and a total of 9 concentrations were diluted at 3.16 times the ratio. 10 μL drug solution was added to each well of the 96-well plate inoculated with cells, and three wells were set for each drug concentration; 96-well plates were incubated at 37° C., 5% CO2 and 95% humidity for 72 h, and CTG analysis was performed. Thaw the CTG reagent and balance the cell plates to room temperature for 30 minutes. Add the same volume of CTG solution to each well and vibrate on a fixed-rail shaker for 5 minutes to crack the cells. Place the cell plates at room temperature for 20 minutes to stabilize the cold light signal and read the cold light value. The GraphPad Prism 5.0 software was used to analyze the data, and the nonlinear S-curve regression was used to fit the data to obtain the dose-effect curve, and the IC50 value was calculated accordingly. Cell survival rate (%)=(Lum drug to be tested −Lum culture medium control)/(Lum cell control−Lum culture medium control)×100%.

CYP2D6 = CYP2D6 (Homo sapiens (Human), UniProt P10635); assay: Inhibition of human liver microsomes CYP450, 2D6; assay type: in vitro ADME; details: compounds 10 μM (positive control: concentration not given)
CYP2D6, sequence (P10635 whole entry): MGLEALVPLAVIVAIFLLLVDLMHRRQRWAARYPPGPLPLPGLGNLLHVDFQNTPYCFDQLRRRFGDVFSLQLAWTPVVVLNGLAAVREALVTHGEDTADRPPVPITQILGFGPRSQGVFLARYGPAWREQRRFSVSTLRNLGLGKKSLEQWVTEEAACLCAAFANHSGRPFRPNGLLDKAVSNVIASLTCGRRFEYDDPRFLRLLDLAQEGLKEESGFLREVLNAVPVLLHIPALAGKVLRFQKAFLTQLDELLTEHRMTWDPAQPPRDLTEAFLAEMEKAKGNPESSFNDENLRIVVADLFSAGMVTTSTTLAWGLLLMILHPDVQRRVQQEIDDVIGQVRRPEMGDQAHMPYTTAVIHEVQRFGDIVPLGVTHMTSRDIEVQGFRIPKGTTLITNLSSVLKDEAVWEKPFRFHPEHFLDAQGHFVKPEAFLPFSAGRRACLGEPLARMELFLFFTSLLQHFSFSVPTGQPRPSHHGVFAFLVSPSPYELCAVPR

AXL (h) kinase = AXL (h) kinase (Homo sapiens (Human), UniProt P30530); assay: AXL (h) kinase activity test (EZ Reader mobility shift, FLPeptide30); assay type: biochemical; details: ATP 100 μM, AXL 1 nM
AXL (h) kinase, sequence (P30530 473-894): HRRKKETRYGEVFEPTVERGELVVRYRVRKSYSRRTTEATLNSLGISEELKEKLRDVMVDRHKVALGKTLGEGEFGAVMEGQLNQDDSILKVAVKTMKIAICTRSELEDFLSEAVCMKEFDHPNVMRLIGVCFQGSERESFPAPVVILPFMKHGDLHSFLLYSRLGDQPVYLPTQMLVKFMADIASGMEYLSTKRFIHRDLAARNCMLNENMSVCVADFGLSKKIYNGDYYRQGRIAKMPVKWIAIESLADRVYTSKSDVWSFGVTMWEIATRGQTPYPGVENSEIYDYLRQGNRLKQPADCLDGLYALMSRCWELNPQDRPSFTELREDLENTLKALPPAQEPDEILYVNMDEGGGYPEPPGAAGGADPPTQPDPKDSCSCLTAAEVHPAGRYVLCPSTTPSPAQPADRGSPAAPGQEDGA
Protocol: The effect of the disclosed compounds as protein kinase inhibitors can be evaluated by the following experiments. The AXL (h) kinase activity of the compounds of the invention is tested by the following methods:
Reagents used in the experiment were AXL (Carna Bioscience, Cat No.: 08-107) and FLPeptide30 (PerkinElmer, Cat No.: 760430). The instruments involved were thermotank (Thermo Scientific), oscillator (QILINBEIER), EZ Reader (PerkinElmer, Cat No.: 122919), Non-contact stage pipetting system (Labcyte Inc., Cat No.: Echo 550), and non-contact nanoliter pipetting system (TECAN, Cat No.: EVO200).
Compound dilution: 1) Dissolve the compound in DMSO to the appropriate concentration; 2) Using TECAN EVO200 to dilute 10 concentrations in 384 microplates by three times gradient, the highest concentration is 1 mM; Echo550 was used to transfer 20 nL solution from the dilution plate to the test plate.
2) Add 15 μL solution 1 to each well of the test plate and incubate at room temperature for 30 minutes.
4) Add 5 μL solution 2 to start the reaction, and the final volume of each well is 20 μL.
5) Incubated at 25° C. for 90 min, and then added 75 μL stop solution (containing 0.5 M EDTA) to terminate the reaction.
6) The sample of each well was analyzed using EZ reader.
1) Based on the measured conversion rate (CR), the Remaining Activity (%) of the kinase was calculated according to the following function:
2) XLFit (Equation 201) software was used to fit IC50.
The above methods can be used to obtain the inhibitory IC50 and/or inhibitory constant Ki.

CYP1A2 = CYP1A2 (Homo sapiens (Human), UniProt P05177); details: microsomes, 10 µM
CYP1A2, sequence (P05177 whole entry): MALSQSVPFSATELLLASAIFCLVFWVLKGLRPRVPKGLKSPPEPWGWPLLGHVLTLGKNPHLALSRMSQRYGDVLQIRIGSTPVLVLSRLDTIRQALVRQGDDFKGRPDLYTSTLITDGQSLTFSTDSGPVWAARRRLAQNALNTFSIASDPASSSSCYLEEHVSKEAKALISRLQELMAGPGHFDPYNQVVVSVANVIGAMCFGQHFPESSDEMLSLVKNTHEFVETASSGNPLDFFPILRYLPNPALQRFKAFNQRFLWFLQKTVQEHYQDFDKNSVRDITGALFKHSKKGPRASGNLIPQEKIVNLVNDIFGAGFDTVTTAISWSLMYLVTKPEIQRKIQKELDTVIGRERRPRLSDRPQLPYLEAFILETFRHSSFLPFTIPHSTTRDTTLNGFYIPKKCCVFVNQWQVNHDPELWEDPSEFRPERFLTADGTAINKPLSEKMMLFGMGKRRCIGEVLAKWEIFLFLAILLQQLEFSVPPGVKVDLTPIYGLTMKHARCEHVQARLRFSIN

CYP3A4 [1] = target: T1, CYP3A4 (Homo sapiens (Human), UniProt P08684); details: hepatocytes, 2 days, 10 μM
Protocol: (§1) Cryopreservation of human primary hepatocytes was resuscitated in medium after take out from liquid nitrogen. […] Plates were incubated at 37° C. and 5% CO2 for 4-6 hours to confirm the formation of monolayer cells attached to the wall. Then the adherent culture medium was changed into hepatocyte culture medium and the culture was continued overnight.
After the test compounds and positive control inducers were co-incubated with cells, the incubation medium was removed. […] After the samples were extracted and processed, the generation of metabolites and the kinase activities of CYP1A2, 2B6 and 3A4 was quantitatively detected by LC-MS/MS, respectively.
The induction of test substance on each subenzyme was determined by detecting the generation rate of metabolites of CYP450 subenzyme substrates. The relative activity of each subenzyme was expressed as a percentage of the relative blank control, and the data were calculated according to the following formula:
Fold of induction=sample subenzyme activity/blank subenzyme activity
Relative positive control activity (PC %)=(Fold of induction of sample group—Fold of induction of blank group)/(Fold of induction of positive control group—Fold of induction of blank group)×100

CYP3A4 [2] = target: T1, CYP3A4; details: hepatocytes, 2 days, 10 μM; remark: listed apart in the source
Protocol: as §1
After the test compound and positive control inducer were co-incubated with cells, the medium was removed and mercaptoethanol was added for cell lysis. Total RNA in cells was extracted with RNA extraction kit, and then transcribed into cDNA with cDNA reverse transcription kit. The 10 μL cDNA template was taken and analyzed on the fluorescence quantitative PCR instrument to obtain the Ct value.
The gene expression data were corrected by internal reference 18S, and the relative expression differences were determined by the method of ΔΔCt commonly used in fluorescence quantitative PCR.
The ΔCt, ΔΔCt and relative expression difference values of the target genes were calculated according to the following formula:
ΔCt=Ct value of target gene−Ct value of internal reference 18S
ΔΔCt=ΔCt of experimental group or positive control group−ΔCt of blank control group
Relative expression difference (fold of induction)=2−ΔΔ^Ct

| Inhibitory rate (%) 3A4/5 (CYP3A4/5) | IC50 (Ba/F3 AXL cells) [nM] | Inhibitory rate (%) 2D6 (CYP2D6) | IC50 (AXL (h) kinase) [nM] | Inhibitory rate (%) 1A2 (CYP1A2) | Enzymatic activity CYP3A4 Fold of induction (CYP3A4 [1]) | Gene expression CYP3A4 Fold of induction (CYP3A4 [2]) | SMILES |
| --- | --- | --- | --- | --- | --- | --- | --- |
| No inhibition | < 5 | No inhibition |  |  |  |  | CC(C)C(=O)N1CCC(c2cc(-c3ccc(NC(=O)c4c5n(n(-c6ccccc6)c4=O)CCCC5)nc3)c3c(N)ncnn23)CC1 [example 11, N-(5-(4-amino-7-(1-isobutyrylpiperidin-4-yl)pyrrolo[2,1-f][1,2,4]triazin-5-yl)pyridin-2-yl)-2-oxo-1-phenyl-1,2,4,5,6,7-hexahydropyrazolo[1,5-a]pyridine-3-carboxamide] |
|  | < 5 | No inhibition | 5 to 50 |  |  |  | CC(C)C(=O)N1CCC(c2cc(-c3ccc(NC(=O)c4c5n(n(-c6ccccc6)c4=O)CCOC5)cc3F)c3c(N)ncnn23)CC1 [example 8, N-(4-(4-amino-7-(1-isobutyrylpiperidin-4-yl)pyrrolo[2,1-f][1,2,4]triazin-5-yl)-3-fluorophenyl)-2-oxo-1-phenyl-2,4,6,7-tetrahydro-1H-pyrazolo[5,1-c][1,4]oxazine-3-carboxamide] |
| No inhibition | < 5 | No inhibition |  | No inhibition |  |  | Nc1ncnn2c(C3CCC(O)CC3)cc(-c3ccc(NC(=O)c4c5n(n(-c6ccccc6)c4=O)CCCC5)nc3)c12 (stereo not drawn) [example 21, N-(5-(4-amino-7-(4-hydroxycyclohexyl)pyrrolo[2,1-f][1,2,4]triazin-5-yl)pyridin-2-yl)-2-oxo-1-phenyl-1,2,4,5,6,7-hexahydropyrazolo[1,5-a]pyridine-3-carboxamide] |
| No inhibition | < 5 |  | < 5 |  | 0.836 | 1.58 | Nc1ncnn2c1c(-c1ccc(NC(=O)c3c4n(n(-c5ccccn5)c3=O)CCCC4)cc1F)cc2[C@H]1CC[C@H](O)CC1 [example 30, N-(4-(4-amino-7-((1r,4r)-4-hydroxycyclohexyl)pyrrolo[2,1-f][1,2,4]triazin-5-yl)-3-fluorophenyl)-2-oxo-1-(pyridin-2-yl)-1,2,4,5,6,7-hexahydropyrazolo[1,5-a]pyridine-3-carboxamide] |
| No inhibition | < 5 |  | 5 to 50 |  | 0.913 | 0.944 | Nc1ncnn2c1c(-c1ccc(NC(=O)c3c4n(n(-c5ccccn5)c3=O)CCOC4)cc1F)cc2[C@H]1CC[C@H](O)CC1 [example 31, N-(4-(4-amino-7-((1r,4r)-4-hydroxycyclohexyl)pyrrolo[2,1-f][1,2,4]triazin-5-yl)-3-fluorophenyl)-2-oxo-1-(pyridin-2-yl)-2,4,6,7-tetrahydro-1H-pyrazolo[5,1-c][1,4]oxazine-3-carboxamide] |
| No inhibition | < 5 |  | 5 to 50 |  | 1.02 | 1.31 | Nc1ncnn2c1c(-c1ccc(NC(=O)c3c4n(n(-c5ccccc5)c3=O)CCOC4)cc1F)cc2[C@H]1CC[C@H](O)CC1 [example 22, N-(4-(4-amino-7-((1r,4r)-4-hydroxycyclohexyl)pyrrolo[2,1-f][1,2,4]triazin-5-yl)-3-fluorophenyl)-2-oxo-1-phenyl-2,4,6,7-tetrahydro-1H-pyrazolo[5,1-c][1,4]oxazine-3-carboxamide] |
| No inhibition | < 5 |  | 5 to 50 |  | 1.26 | 276 | CC(C)C(=O)N1CCC(c2cc(-c3ccc(NC(=O)c4c5n(n(-c6ccccc6)c4=O)CCCC5)cc3F)c3c(N)ncnn23)CC1 [example 16, N-(4-(4-amino-7-(1-isobutyrylpiperidin-4-yl)pyrrolo[2,1-f][1,2,4]triazin-5-yl)-3-fluorophenyl)-2-oxo-1-phenyl-1,2,4,5,6,7-hexahydropyrazolo[1,5-a]pyridine-3-carboxamide] |
